Here are results for 17 molecules from patent publication US9994525B2, “H3 antagonists containing phenoxypiperidine core structure” (RICHTER GEDEON NYRT., priority 2013, dated 2018).

Where a name gives a salt, the structure may show the parent alone.

For data set [1], the target named is rat histamine H3 receptors (Rattus norvegicus (Rat), UniProt Q9QYN8). Description: rat histamine H3 receptor in vitro binding assay, N-α-[Methyl-3H]methylhistamine radioligand, rat cortex membrane. The following applies: 1 nM radioligand, read-out: rH3 Ki. Here is the method: The in vitro affinity of the compounds of the present invention for rat histamine H3 receptors can be determined according to the following procedure.
rat histamine H3 receptors, sequence (Q9QYN8 whole entry): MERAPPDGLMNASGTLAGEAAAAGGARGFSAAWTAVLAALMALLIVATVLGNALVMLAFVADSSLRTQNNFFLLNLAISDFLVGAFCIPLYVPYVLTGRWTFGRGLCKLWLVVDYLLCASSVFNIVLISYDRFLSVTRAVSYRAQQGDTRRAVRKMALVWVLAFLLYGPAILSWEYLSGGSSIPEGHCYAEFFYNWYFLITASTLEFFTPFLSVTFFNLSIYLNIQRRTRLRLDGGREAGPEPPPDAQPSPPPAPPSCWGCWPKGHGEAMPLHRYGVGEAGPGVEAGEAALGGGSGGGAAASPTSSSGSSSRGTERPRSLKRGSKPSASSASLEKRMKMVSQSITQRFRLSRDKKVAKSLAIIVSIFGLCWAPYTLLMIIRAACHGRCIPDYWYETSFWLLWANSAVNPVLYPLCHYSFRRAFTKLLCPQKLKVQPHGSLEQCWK
The rat histamine H3 receptor membrane was prepared as previously described by Witte et al. (British Journal of Pharmacol. 1-14, 2006). Male Sprague-Dawley rats were decapitated, their brains were removed and the cortex was isolated. The obtained tissues were homogenized in Tris-EDTA buffer (50 mM Tris-HCl, pH 7.4, 5 mM EDTA, 2 aprotinin, 1 mM benzamidine, 2 μg/ml leupeptin, 1 pepstatin) by a blender homogenizer (Ultra-Turrax). The homogenate was centrifuged at 40000 g for 20 min at 4° C. The membrane pellets were further purified by repeating the above homogenization and centrifugation steps. Final membrane preparations were obtained by rehomogenizing the pellets in 1:10 ratio in Tris-EDTA buffer (50 mM Tris-HCl, pH 7.4, 5 mM EDTA). The so obtained membrane preparation was divided into aliquots, flash frozen and stored at −80° C. until use. Protein content was determined by Lowry method using bovine serum albumin (BSA) as standard.
Receptor binding assays were performed in at least 5 concentrations, with two parallel samples in each concentrations, in at least two independent experiments using the binding buffer (50 mM Tris-HCl, pH 7.4, 5 mM MgCl2), rat H3 membrane (140 μg protein/tube), and N-α-[Methyl-^3H]methylhistamine dihydrochloride (1 nM) as radioligand. Non-specific binding was determined in the presence of 10 μM thioperamide. The samples were incubated in a final volume of 0.50 ml for 30 min at 25° C. Binding reactions were terminated by rapid filtration through UniFilter® GF/B™ fiber glass filters presoaked for at least 2 h in 0.5% polyethylene imine (PEI). The filterplates were washed nine times with 0.5 ml of ice-cold washing buffer (50 mM Tris-HCl, pH 7.4, 5 mM MgCl2, 10 μg/ml saponine). The filterplates were dried at 50° C. for 45 min and 40 μl of Microscint20 (Packard) scintillation cocktail was added to each well. Filters radioactivity was determined by TopCount (Packard) scintillation counter.
The ligand displacement by the compounds of the present invention was determined in at least two parallel experiments. The specific radioligand binding was defined as the difference between the total binding and the non-specific binding determined in the presence of excess of unlabelled ligand or test compounds used to specifically displace the radioligand. Results were expressed as a percent inhibition of specific binding obtained in the presence of test compounds. IC50 values were calculated from concentration-displacement curves by sigmoidal fitting using GraphPad Prism Software 4.0. Inhibition constants (Ki values) were calculated using the Cheng-Prusoff equation (Cheng Y C and Prusoff W H (1973) Biochem Pharmacol 22:3099-3108).
The affinity at rat H3 receptors of compounds of the present invention is illustrated by the following table.

The conditions of data set [2]: cited from earlier work.
In a further data set the target is hERG potassium channel (Homo sapiens (Human), UniProt Q12809). The following applies: cited from earlier work.
hERG potassium channel, sequence (Q12809 whole entry): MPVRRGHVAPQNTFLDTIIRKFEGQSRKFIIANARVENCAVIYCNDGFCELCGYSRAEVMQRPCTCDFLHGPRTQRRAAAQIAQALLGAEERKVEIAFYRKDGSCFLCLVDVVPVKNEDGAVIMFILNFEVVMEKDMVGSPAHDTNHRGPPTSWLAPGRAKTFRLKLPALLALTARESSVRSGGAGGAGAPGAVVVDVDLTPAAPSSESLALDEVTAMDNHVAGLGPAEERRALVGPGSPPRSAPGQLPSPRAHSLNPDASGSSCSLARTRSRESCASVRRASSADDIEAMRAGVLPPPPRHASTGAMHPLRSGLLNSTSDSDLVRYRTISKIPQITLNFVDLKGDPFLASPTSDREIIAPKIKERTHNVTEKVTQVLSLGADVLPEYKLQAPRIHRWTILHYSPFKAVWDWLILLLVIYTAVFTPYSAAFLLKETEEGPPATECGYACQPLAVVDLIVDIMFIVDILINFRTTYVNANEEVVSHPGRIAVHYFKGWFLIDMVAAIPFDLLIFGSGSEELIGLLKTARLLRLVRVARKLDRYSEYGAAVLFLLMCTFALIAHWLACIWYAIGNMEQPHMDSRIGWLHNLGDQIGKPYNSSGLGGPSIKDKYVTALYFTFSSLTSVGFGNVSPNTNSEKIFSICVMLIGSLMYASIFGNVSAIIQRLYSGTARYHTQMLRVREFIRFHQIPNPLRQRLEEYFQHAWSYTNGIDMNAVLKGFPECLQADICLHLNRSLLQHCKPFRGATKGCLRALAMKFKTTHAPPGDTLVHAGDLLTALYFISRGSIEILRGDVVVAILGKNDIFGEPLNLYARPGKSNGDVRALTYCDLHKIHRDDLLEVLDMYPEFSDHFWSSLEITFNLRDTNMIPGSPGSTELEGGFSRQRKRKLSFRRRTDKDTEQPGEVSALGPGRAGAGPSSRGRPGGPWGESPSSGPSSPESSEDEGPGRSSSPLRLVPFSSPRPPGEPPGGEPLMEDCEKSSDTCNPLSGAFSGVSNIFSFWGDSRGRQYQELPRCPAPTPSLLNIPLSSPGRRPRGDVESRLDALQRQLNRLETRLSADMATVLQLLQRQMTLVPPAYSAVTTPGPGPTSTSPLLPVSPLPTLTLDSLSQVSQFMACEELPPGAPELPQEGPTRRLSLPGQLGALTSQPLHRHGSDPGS
Data set [3] concerns extracellular acetylcholine (ACh) levels. The experiment in a line: cerebral microdialysis, extracellular acetylcholine (ACh) levels in prefrontal cortex and hippocampus. It is filed as in vivo, male Wistar rats. As to conditions: rats. The text has this:
(§1) Prefrontal cortex and hippocampus, the two brain regions play important roles in cognition processes. Both histamine (HA) and acetylcholine (ACh) are transmitters playing important roles in cognition. The hypofunction of the central cholinergic and histaminergic systems is considered one of the pathogenic causes of the cognitive deficits characterizing dementias. Alterations in the extracellular levels of HA and ACh were investigated after single and simultaneous treatment with histamine H3 antagonists and acetylcholine esterase inhibitors (AChEIs) in the prefrontal cortex and hippocampus of conscious, freely moving male Wistar rats (4-6 animals/group) by cerebral microdialysis technique.
(§2) Microdialysis probes were implanted in the medial prefrontal cortex (MPFC) and hippocampus (HC), and perfused with artificial AChEI-free cerebrospinal fluid (aCSF). Compounds examined in the present study were administered in 1% hydroxypropyl-methylcellulose (HPMC) and 5% polyoxiethelen(8)-sorbitane-monooleat (Tween 80) into the stomach via surgically implanted catheter.
(§3) Thirty-min samples were collected and the temporal changes in the extracellular ACh and histamine HA were followed by high-sensitivity and selectivity liquid chromatography coupled with mass spectrometry/mass spectrometry (LC-MS/MS) analytical method. […]

The conditions of data set [4]: rat, in vivo.
The test system of data set [5] is extracellular histamine (HA) levels. The experiment in a line: cerebral microdialysis, extracellular histamine (HA) levels in prefrontal cortex and hippocampus. As to conditions: rats. It is filed as in vivo, male Wistar rats.
Text: as §1, §2, §3

Setting [6] is: single treatment, 0.5 and 1 mg/kg into the stomach, MPFC and HC.

Consider `CC(C)(C)OC(=O)N1CCC(Oc2ccc(OCCCN3CCCCC3)cc2)CC1` [Example 1, 4-{4-[3-(piperidin-1-yl)-propoxy]-phenoxy}-piperidine-1-carboxylic acid tert-butyl ester], for which, in data set [1], the Ki lay in the range of 10 to 50 nM. `CC(=O)N1CCC(Oc2ccc(OCCCN3CCCCC3)cc2)CC1` [Example 3, 1-(4-{4-[3-(piperidin-1-yl)-propoxy]-phenoxy}-piperidin-1-yl)-ethanone hydrochloride salt]: the Ki in data set [1] was less than 10 nM. As for `C[C@@H]1CCCN1CCCOc1ccc(OC2CCNCC2)cc1` [Example 10, 4-(4-{3-[(2R)-2-methyl-pyrrolidin-1-yl]-propoxy}-phenoxy)-piperidine dihydrochloride salt], the Ki in data set [1] is less than 10 nM.

As for `C[C@@H]1CCCN1CCc1cc2cc(-c3ccc(C#N)cc3)ccc2o1` [ABT-239], the plasma protein binding entry in data set [2] is on record as “High”. Further, the “cardiovascular side-effects, interaction with the hERG potassium channel” value at hERG potassium channel was “interaction with the hERG potassium channel”. Consider `CC(=O)N1CCC(Oc2ccc(OCCCN3CCC[C@H]3C)cc2)CC1` [Example 11, 1-[4-(4-{3-[(2R)-2-methyl-pyrrolidin-1-yl]-propoxy}-phenoxy)-piperidin-1-yl]-ethanone hydrochloride salt], for which the Ki in data set [1] fell in the range of 10 to 50 nM. Also, in data set [3] (simultaneous administration of 0.5 mg/kg donepezil and 0.5 or 1 mg/kg Compound 11, MPFC and HC), the “extracellular ACh” value is “supra-additive increase”. In addition, the ACh levels result in data set [3] (setting [6]) was “No significant changes”. Further, the “plasma and brain levels” value in data set [4] is listed as “did not change”. The “HA release evoked by Compound 11” value in data set [5] (simultaneous administration with donepezil) was “not changed”. For the same molecule, the “extracellular HA level” value in data set [5] (setting [6]) was “rapid and expressed increase”. For `CC1(C(=O)N2CCC(Oc3ccc(OCCCN4CCCCC4)cc3)CC2)CC1` [Example 5, (1-methyl-cyclopropyl)-(4-{4-[3-(piperidin-1-yl)-propoxy]-phenoxy}-piperidin-1-yl)-methanon hydrochloride salt], the Ki in data set [1] is less than 10 nM. Still for that read-out and setting: the value for `C[C@@H]1CCCN1CCCOc1ccc(OC2CCN(C(=O)C3(C)CC3)CC2)cc1` [Example 13, (1-methyl-cyclopropyl)-[4-(4-{3-[(2R)-2-methyl-pyrrolidin-1-yl]-propoxy}-phenoxy)-piperidin-1-yl]-methanone hydrochloride salt] was less than 10 nM. The same measure, in the same setting: in the case of `C[C@@H]1CCCN1CCCOc1ccc(OC2CCN(C(=O)C3CCC3)CC2)cc1` [Example 12, cyclobutyl-[4-(4-{3-[(2R)-2-methylpyrrolidin-1-yl]-propoxy}-phenoxy)-piperidin-1-yl]-methanone hydrochloride salt] it was less than 10 nM; in that of `CCOC(=O)N1CCC(Oc2ccc(OCCCN3CCC[C@H]3C)cc2)CC1` [Example 14, ethyl-4-(4-{3-[(2R)-2-methyl-pyrrolidin-1-yl]-propoxy}-phenoxy)-piperidine-1-carboxilate hydrochloride salt], less than 10 nM. Regarding `c1cc(OC2CCNCC2)ccc1OCCCN1CCCCC1` [Example 2, 1-{3-[4-(piperidin-4-yl-oxy)-phenoxy]-propyl}-piperidine dihydrochloride salt], the inhibitory constant (Ki) in data set [1] is 10 to 50 nM. The same measure, in the same setting: the value for `CCOC(=O)N1CCC(Oc2ccc(OCCCN3CCCCC3)cc2)CC1` [Example 6, Ethyl-4-{4-[3-(piperidin-1-yl)-propoxy]-phenoxy}-piperidine-1-carboxylate hydrochloride salt] was 10 to 50 nM; that for `O=C(C1CCC1)N1CCC(Oc2ccc(OCCCN3CCCCC3)cc2)CC1` [Example 4, Cyclobutyl-(4-{4-[3-(piperidin-1-yl)-propoxy]-phenoxy}-piperidin-1-yl)-methanone hydrochloride salt] was 10 to 50 nM. Still for that read-out and setting: in the case of `CCNC(=O)N1CCC(Oc2ccc(OCCCN3CCCCC3)cc2)CC1` [Example 7, N-ethyl-4-{4-[3-(piperidin-1-yl)-propoxy]-phenoxy}-piperidine-1-carboxamide] it was 10 to 50 nM; in that of `C[C@@H]1CCCN1CCCOc1ccc(OC2CCN(C(=O)OC(C)(C)C)CC2)cc1` [Example 9, 4-(4-{3-[(2R)-2-methyl-pyrrolidin-1-yl]-propoxy}-phenoxy)-piperidine-1-carboxylic acid tert-butyl ester], 10 to 50 nM; in that of `CCNC(=O)N1CCC(Oc2ccc(OCCCN3CCC[C@H]3C)cc2)CC1` [Example 15, N-ethyl-4-(4-{3-[(2R)-2-methyl-pyrrolidin-1-yl]-propoxy}-phenoxy)-piperidine-1-carboxamide], less than 10 nM. On the same count and under the same terms, the value for `CCN(C)C(=O)N1CCC(Oc2ccc(OCCCN3CCCCC3)cc2)CC1` [Example 8, N-ethyl-N-methyl-4-{4-[3-(piperidin-1-yl)-propoxy]-phenoxy}-piperidine-1-carboxamide hydrochloride salt] was 10 to 50 nM; that for `CCN(C)C(=O)N1CCC(Oc2ccc(OCCCN3CCC[C@H]3C)cc2)CC1` [Example 16, N-ethyl-N-methyl-4-(4-{3-[(2R)-2-methyl-pyrrolidin-1-yl]-propoxy}-phenoxy)-piperidine-1-carboxamide hydrochloride salt] was less than 10 nM.
